According to patent publication US12389908B2, “Fungicide composition for controlling Zymoseptoria infection in plant” (priority 2019, dated 2025):

Experiments:
[1] = system: Zymoseptoria tritici strain Zt Tri-R6; test: Preventive treatment of wheat plants, inoculated leaf fragments (detached leaf test), necrosis length / AUDPC; assay type: in vivo
Description: A study was conducted to evaluate efficacy of multi-site fungicide (Captan) on zymoSeptoria tritici pathogen. Winter wheat plants cv. Alixan (Limagrain) at the BBCH 12 growth stage were treated with a hand sprayer at 2 bars calibrated to deliver the equivalent of 200 L/ha. Three replicates (pots) of 6 wheat plants each are used for all conditions tested. After treatment, wheat plants are left to dry at room temperature for 1 hour and then placed in a climatic chamber.
Twenty-four hours after treatments, 5-cm fragments of the first leaf are cut and transferred on 90-mm diameter Petri dish containing water agar supplemented with an anti-senescing compound (7 leaf fragments per Petri dish). Leaf fragments are then inoculated with a paint brush dipped into the calibrated pycnospores suspension of Z. tritici strain Mg Tri-R6.
After inoculation, Petri dishes are placed in adapted climatic conditions.
Disease assessments are carried out 21 and 28 days post inoculation (dpi) by measuring the length of the necrosis and the total length of the leaf fragment. The intensity of infection is then determined in percent of the total length of the leaf fragment. The values of the intensity of infection obtained are compared by means of the Newman and Keuls test (XL-Stat software, Addinsoft Ltd.).
The most commonly used method for estimating the Area Under the Disease Progress Curve (AUDPC), the trapezoidal method, is performed. The fungicide efficacy was determined from the intensity of infection and the AUDPC values and expressed in percent of the untreated control.

[2] = system: Speckled leaf blotch of wheat (Spetoria Titrici); test: Field trials (Trial 1 and Trial 2) in winter wheat, control of speckled leaf blotch; assay type: in vivo, Zymoseptoria tritici
Description: Two trials were conducted in Winter wheat/Triticum aestivum (winter), variety ADVISOR, to evaluate the control of Speckled leaf blotch of wheat (Spetoria Titrici) as primary target. All products were applied with a knapsack sprayer using compressed air as the propellant. The sprayer was equipped with a boom and flat fan nozzles, and calibrated to apply a homogeneous spray volume at a constant pressure.
Application method: Application A: At the beginning of disease attack and Application B: Renew the application when new disease attack occurs in the best plots, 3 weeks after application A (at least 2 weeks, at the most 4 weeks).

[3] = Dose 1600 g a.i./ha, strain Zt Tri-R6, wheat leaf fragments treated preventively

Compound: CC1COC(Cn2cncn2)(c2ccc(Oc3ccc(Cl)cc3)cc2Cl)O1 (stereo not drawn) [Difenoconazole]
- Fungicide efficacy against Zymoseptoria tritici (% Control) ([1]; Table 2, from AUDPC values, dose 25 g a.i./ha, strain Zt Tri-R6): 81.8 % Control

Compound: O=C1C2CC=CCC2C(=O)N1SC(Cl)(Cl)Cl (stereo not drawn) [Captan]
- Fungicide efficacy against Zymoseptoria tritici (% Control) ([2]; Trial 1, winter wheat field, rate 1.8 L/ha, 28 DA-B (first 28 DA-B column)): 32.4 % Control
- Fungicide efficacy against Zymoseptoria tritici (% Control) ([2]; Trial 1, winter wheat field, rate 1.8 L/ha, 28 DA-B (second 28 DA-B column)): 24.5 % Control
- Fungicide efficacy against Zymoseptoria tritici (% Control) ([2]; Trial 2, winter wheat field, rate 1.8 L/ha, 26 DA-A): 41.3 % Control
- Fungicide efficacy against Zymoseptoria tritici (% Control) ([2]; Trial 2, winter wheat field, rate 1.8 L/ha, 40 DA-A (first 40 DA-A column)): 31.9 % Control
- Fungicide efficacy against Zymoseptoria tritici (% Control) ([2]; Trial 2, winter wheat field, rate 1.8 L/ha, 40 DA-A (second 40 DA-A column)): 25.7 % Control
- efficiency ([1]; 800 g/ha, strain Zt Tri-R6): 77%
- inhibition of the development of the Z. tritici strain into wheat leaf tissues ([1]; 1600, 2400 and 3200 g/ha): almost completely inhibits
- Fungicide efficacy against Zymoseptoria tritici (% Control) ([1]; Dose 800 g a.i./ha, strain Zt Tri-R6, wheat leaf fragments treated preventively): 77.9 % Control
- Fungicide efficacy against Zymoseptoria tritici (% Control) [1, 3]: 96.0 % Control
- Fungicide efficacy against Zymoseptoria tritici (% Control) ([1]; Dose 2400 g a.i./ha, strain Zt Tri-R6, wheat leaf fragments treated preventively): 97.0 % Control
- Fungicide efficacy against Zymoseptoria tritici (% Control) ([1]; Dose 3200 g a.i./ha, strain Zt Tri-R6, wheat leaf fragments treated preventively): 100 % Control
- effectiveness for controlling Septoria tritici ([1]; conclusion from Tables 1 to 5): effective for controlling Septoria tritici
- fungicidal efficacy against Zymoseptoria tritici strain Zt Tri-R6 ([1]; lowest rate of 800 g/ha): very good fungicidal efficacy

Compound: N#Cc1c(Cl)c(Cl)c(Cl)c(C#N)c1Cl [Chlorothalonil]
- Fungicide efficacy against Zymoseptoria tritici (% Control) ([1]; Dose 750 g a.i./ha, strain Zt Tri-R6, wheat leaf fragments treated preventively): 69.2 % Control

Compound: S1SSSSSSS1 [sulphur]
- Fungicide efficacy against Zymoseptoria tritici (% Control) ([1]; Dose 4200 g a.i./ha, strain Zt Tri-R6, wheat leaf fragments treated preventively): 65.8 % Control

Compound: OC(Cc1ccccc1Cl)(Cn1nc[nH]c1=S)C1(Cl)CC1 (stereo not drawn) [Prothioconazole]
- Fungicide efficacy against Zymoseptoria tritici (% Control) ([2]; Trial 1, winter wheat field, rate 0.31 L/ha, 28 DA-B (first 28 DA-B column)): 31.2 % Control
- Fungicide efficacy against Zymoseptoria tritici (% Control) ([2]; Trial 1, winter wheat field, rate 0.31 L/ha, 28 DA-B (second 28 DA-B column)): 28.8 % Control
- Fungicide efficacy against Zymoseptoria tritici (% Control) ([2]; Trial 2, winter wheat field, rate 0.31 L/ha, 26 DA-A): 42.3 % Control
- Fungicide efficacy against Zymoseptoria tritici (% Control) ([2]; Trial 2, winter wheat field, rate 0.31 L/ha, 40 DA-A (first 40 DA-A column)): 40.7 % Control
- Fungicide efficacy against Zymoseptoria tritici (% Control) ([2]; Trial 2, winter wheat field, rate 0.31 L/ha, 40 DA-A (second 40 DA-A column)): 58.4 % Control
- Fungicide efficacy against Zymoseptoria tritici (%) ([1]; Table 3, from AUDPC values, dose 30 g a.i./ha, strain Zt Tri-R6): 68.2%
- Fungicide efficacy against Zymoseptoria tritici (%) ([1]; Table 4, from AUDPC values, dose 22.5 g a.i./ha, strain Zt Tri-R6): 62.9%

Compound: Mancozeb
- Fungicide efficacy against Zymoseptoria tritici (% Control) [1, 3]: 21.0 % Control
